Converted amounts (≈) assume the structure as drawn.
What was measured:
[1] = cited from earlier work
C. albicans SC5314 = assay: Time-kill assay; format: cell-based, Candida albicans; details: 0.5 μg/ml AMB, 3.6 μg/ml ZAC989, 4.4 μg/ml EDTA, 4.2 μg/ml TPEN; up to 24 h
Procedure: C. albicans SC5314 cells (10^5 CFU/ml) were incubated in 10 ml of RPMI medium at 30°C with gentle agitation (150 rpm) in the presence of EDTA (15 μM), TPEN (10 μM), ZAC989 (10 μM), or AMB (0.5 μM). At the desired time points (0, 3, 5.5, and 24 h), a 100-μl aliquot was removed for each test condition and serially diluted (10-fold) in saline (0.9% NaCl), and 30 μl of each dilution was plated on YPD agar plates. The colony count on each YPD plate was determined after incubation at 30°C for 48 h ([40]). C. albicans cells treated with DMSO (1%, vol/vol) served as a control.

HepG2 cells = assay: Human hepatocyte (HepG2) proliferation assay; format: cell-based; details: for EC50: 24 h exposure, XTT
Procedure: In each well of a 96-well tissue culture plate (GR-655180; Grenier), 10,000 human hepatocytes (HepG2) (85011430; […] Sigma]) supplemented with 2 mM L-[…]-020-1B; Biological Industries), 1% nonessential amino acids (XC-[…]/100; Biosera), and 10% fetal bovine serum (BI-04-007-1A; Biological Industries), and plates were incubated overnight at 37°C and 5% CO2. […] The plate was incubated for a further 24 h or 72 h at 37°C and 5% CO2. The medium was then replaced with 100 μl of freshly prepared 2,3-bis-(2-methoxy-4-nitro-5-sulfophenyl)-2H-tetrazolium-5-carboxanilide salt (XTT) sodium salt solution (0.5 mg/ml of XTT; […]; Sigma) in RPMI 1640 ([…]; Sigma-Aldrich) with 3.83 μg/ml of phenazine methosulfate ([…]; Sigma-Aldrich) and incubated 2 to 3 h at 37°C and 5% CO2 ([43]). The color reaction was measured on Victor X5 plate reader (Perkin-Elmer) at OD450, and the half-maximal effective concentration (EC50) was calculated. Tamoxifen (85256; Sigma) was used as a positive-control compound.

Candida albicans = assay: Abrogation of the antifungal effect by exogenous divalent metals; format: cell-based; details: for fungal growth rate compared to control cells: in the presence of 100 μM Fe^2+
Procedure: Antifungal susceptibility testing was carried out as described previously ([38], [39]), with a few modifications. Briefly, for each yeast or mold growth inhibition assay, frozen stocks of yeast cells or spores were diluted to a final concentration of 0.5 × 10^5 to 2.5 × 10^5 CFU/ml in sterile water. ZAC989, ZAC307, and ZAC623 were dissolved in DMSO to 10 mM stocks from which half-log serial dilutions were prepared. Growth assays were subsequently performed by pipetting 3 μl of compound dissolved in DMSO (giving a final concentration of 1.5% DMSO), 100 μl of cell-spore suspension, and 97 μl of 2× RPMI medium (20.8 g/liter of RPMI 1640 medium, 69.06 g/liter of morpholinepropanesulfonic acid [MOPS], 36 g/liter of glucose) into a microtiter plate that was incubated for 24 h (yeasts) or 48 to 72 h (molds) at 34°C. Fungal growth was determined spectrophotometrically by optical density reading of each well at a wavelength of 492 nm on a Victor X5 (Perkin-Elmer) plate reader. […] Standard errors between repeated experiments were generally below 5%. The growth effect of exogenous addition of various divalent metals was evaluated by performing the antifungal […], MgCl2, and CaCl2.

[2] = biological target: fungal plasma membrane H^+-ATPase (Saccharomyces cerevisiae, UniProt P05030); assay: H+-ATPase-inhibitory activity; format: biochemical
C. krusei ATCC 6258 = assay: Antifungal susceptibility testing (MIC); format: cell-based, Candida krusei; details: Pichia kudriavzevii, ATCC6258; at least 50% growth inhibition, RPMI, 24 h, 34°C
Procedure: (§1) Antifungal susceptibility testing was carried out as described previously ([38], [39]), with a few modifications. Briefly, for each yeast or mold growth inhibition assay, frozen stocks of yeast cells or spores were diluted to a final concentration of 0.5 × 10^5 to 2.5 × 10^5 CFU/ml in sterile water. ZAC989, ZAC307, and ZAC623 were dissolved in DMSO to 10 mM stocks from which half-log serial dilutions were prepared. Growth assays were subsequently performed by pipetting 3 μl of compound dissolved in DMSO (giving a final concentration of 1.5% DMSO), 100 μl of cell-spore suspension, and 97 μl of 2× RPMI medium (20.8 g/liter of RPMI 1640 medium, 69.06 g/liter of morpholinepropanesulfonic acid [MOPS], 36 g/liter of glucose) into a microtiter plate that was incubated for 24 h (yeasts) or 48 to 72 h (molds) at 34°C. Fungal growth was determined spectrophotometrically by optical density reading of each well at a wavelength of 492 nm on a Victor X5 (Perkin-Elmer) plate reader. […] Standard errors between repeated experiments were generally below 5%. The growth effect of exogenous addition of various divalent metals was evaluated by performing the antifungal susceptibility assay in the presence of 5 μM ZAC989 or ZAC307 and with increasing concentrations (0.003 to 50 μM) of ZnSO4, CuSO4, (NH4)2Fe(SO4)2, MgCl2, and CaCl2.

C. glabrata Cg003 = assay: Antifungal susceptibility testing (MIC); format: cell-based, Candida glabrata; details: Nakaseomyces glabratus, CG003, 24 h
Procedure: as §1

C. glabrata ATCC 90030 = assay: Antifungal susceptibility testing (MIC); format: cell-based, Candida glabrata; details: Nakaseomyces glabratus, ATCC90030; at least 50% growth inhibition, RPMI, 24 h, 34°C
Procedure: as §1

Chain of fungal plasma membrane H^+-ATPase (P05030 whole entry): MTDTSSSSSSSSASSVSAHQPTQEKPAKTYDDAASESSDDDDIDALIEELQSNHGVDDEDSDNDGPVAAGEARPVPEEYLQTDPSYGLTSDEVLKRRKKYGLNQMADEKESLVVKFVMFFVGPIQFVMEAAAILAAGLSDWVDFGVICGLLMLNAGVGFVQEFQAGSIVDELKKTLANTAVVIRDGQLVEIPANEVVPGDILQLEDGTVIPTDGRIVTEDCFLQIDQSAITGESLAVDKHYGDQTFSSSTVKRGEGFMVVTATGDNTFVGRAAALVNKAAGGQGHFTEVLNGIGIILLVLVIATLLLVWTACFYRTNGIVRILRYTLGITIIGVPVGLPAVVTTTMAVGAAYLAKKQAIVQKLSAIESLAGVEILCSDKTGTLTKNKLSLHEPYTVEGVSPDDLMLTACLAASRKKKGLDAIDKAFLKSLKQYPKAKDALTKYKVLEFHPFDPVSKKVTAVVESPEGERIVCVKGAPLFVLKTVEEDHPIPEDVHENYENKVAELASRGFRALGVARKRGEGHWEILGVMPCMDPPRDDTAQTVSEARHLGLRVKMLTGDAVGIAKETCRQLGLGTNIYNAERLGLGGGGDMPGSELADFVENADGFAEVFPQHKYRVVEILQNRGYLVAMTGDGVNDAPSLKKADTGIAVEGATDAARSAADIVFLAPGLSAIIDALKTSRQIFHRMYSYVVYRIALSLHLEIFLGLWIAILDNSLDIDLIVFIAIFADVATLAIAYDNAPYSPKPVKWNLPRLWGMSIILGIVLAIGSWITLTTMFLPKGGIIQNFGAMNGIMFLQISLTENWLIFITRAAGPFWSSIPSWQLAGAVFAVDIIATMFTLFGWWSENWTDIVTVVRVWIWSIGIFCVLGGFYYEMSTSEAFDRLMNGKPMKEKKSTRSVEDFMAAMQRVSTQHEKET

Row | SMILES | zinc chelation (in words) [1] | time-kill activity (fungistatic or fungicidal) (C. albicans SC5314) | effect on the proliferation of HepG2 cells (in words) (HepG2 cells) | EC50 (HepG2 cells) [µg/mL] | effect of exogenous addition of zinc or copper on the antifungal effects (Candida albicans) | fungal growth rate compared to control cells (Candida albicans) | H^+-ATPase-inhibitory activity [2] | MIC (C. krusei ATCC 6258) [µg/mL] | MIC (C. glabrata Cg003) [µg/mL] | MIC (C. glabrata ATCC 90030) [µg/mL]
1 | O=C(O)CN(CCN(CC(=O)O)CC(=O)O)CC(=O)O [EDTA] | very potent zinc chelators | fungistatic effect within the first 24 h of exposure | did not affect the proliferation of HepG2 cells | >29 |  |  |  |  |  | 
2 | Cc1cc(O)n(-c2cc(N3CC[C@H](Oc4cnccc4C#N)C3)ncn2)n1 [ZAC989, 3-[(3S)-1-[6-(5-hydroxy-3-methyl-pyrazol-1-yl)pyrimidin-4-yl]pyrrolidin-3-yl]oxy-pyridine-4-carbonitrile] |  |  |  | >36 | reversed | approximately 50% | lacked H^+-ATPase-inhibitory activity | 0.8 (≈ 2.2 µM) | 0.6 (≈ 1.65 µM) | 0.9 (≈ 2.48 µM)
3 | CN(C)c1cc(-n2nc(-c3ccccc3)cc2O)ncn1 [ZAC307, 2-[6-(dimethylamino)pyrimidin-4-yl]-5-phenyl-pyrazol-3-ol] |  |  |  |  | reversed | approximately 50% | lacked H^+-ATPase-inhibitory activity | 0.4 (≈ 1.42 µM) | 0.2 (≈ 0.711 µM) | 0.2 (≈ 0.711 µM)
4 | c1ccc(CN(CCN(Cc2ccccn2)Cc2ccccn2)Cc2ccccn2)nc1 [TPEN, N,N,N’,N’-tetrakis(2-pyridylmethyl)-ethylenediamine] | very potent zinc chelators | fungistatic effect within the first 24 h of exposure |  |  |  |  |  |  |  | 
